In one test the test system is HIV-2 protease. Put plainly: HIV protease cleavage of nonapeptide (HPLC). It counts as biochemical. Conditions: 0.5 μl of 10 μg/μl inhibitor in DMSO per 10 μl reaction; pH 6.5, room temperature; pentapeptide product relative to DMSO control; sampled at ca. 16 and 40 hr (time not given). On the procedure:
Activity Against HIV Protease
The assay for proteolyic activity is a modified version of that previously described by Copeland et al., Gene Anal. Tech., 5:109-115 (1988). For each assay to be performed 2 microliters of protease solution (ca. 100 ng) is added to 3 μg of nonapeptide (Val-Ser-Gln-Asn-Tyr-Pro-Ile-Val-Gln-NH2) in 8 μl of 200 mM sodium phosphate, 1 M NaCl, 5% glycerol, 0.25% Nonidet-40, at pH 6.5. This affords a stock solution containing 10 μl per number of reactions. This stock is aliquoted out in 10 μl portions to which 0.5 μl of DMSO (a control is run with each set of assays to compensate for minor experimental variations) or a DMSO solution containing 10 μg/μl of an inhibitor, i.e., any one of the compounds of the present invention, is added. The reactions were incubated at room temperature and 4 μl portions were removed at ca. 16 and 40 hr. intervals. HPLC analysis was performed on a 4.6×250 mm Lichrosorb RP-18 column eluted with a gradient of 0-40% acetonitrile in water (containing 0.05% TFA) over 30 min monitoring absorbance at 206 nm. Progress of the enzymatic cleavage was followed by monitoring the appearance of the pentapeptide (Val-Ser-Gln-Asn-Tyr-OH) cleavage product. The activity is expressed as the amount of the pentapeptide (Val-Ser-Gln-Asn-Tyr-OH) observed relative to the control reaction for that set of assays.
Inhibition of HIV-2 protease

The test system of another test is HIV1 IIIb. Put plainly: microbe, parasite or virus in culture. Type of test: cell-based. Conditions: Human immunodeficiency virus 1, IIIB; for viability at 50 µg/mL: 50 ug/ml; for viability at 4.9 µg/mL: 4.9 ug/ml; for viability at 2.9 µg/mL: 2.9 ug/ml; for viability at 21 µg/mL: 21 ug/ml; for viability at 10 µg/mL: 10 ug/ml; for viability at 100 µg/mL: 100 ug/ml. The source says:
In-vitro Screening Anti--HIV XTT Assay
This assay, which is available to the public by the National Cancer Institute, utilizes colorimetry based on the production of a colored formazin from a tetrazolium salt by viable cells, to develop a safe, rapid and quantitative measure of HIV cytopathology. The assay is a modification of the previously described screening method for the detection of anti-tumor drug cytotoxicity (D. A. Scudiero, et al, Cancer Res, 48, 4827-4833 (1988)). It involves the plating of susceptible human "host" cells with and without virus in microculture plates, adding various concentrations of the respective test compounds, incubating the plates for seven days, during which time infected, non-drug treated control cells are largely or totally destroyed by the virus. The number of remaining viable cells are determined utilizing a calorimetric endpoint. A beneficial antiviral effect is indicated by a response % grater than the virus kill %, with 100% being optimal.
Anti-viral effect: Response (Viable Cells, determined by colorometric
absorbance of formazan dye produced) as % of uninfected controls
Virus Source: HIV1 IIIb; C, Virus producing H9 cells; V, cell free virus
Virus Kill: Infected untreated cells as % of uninfected cell controls
*: Culture redosed with compound after 3 days

Molecules are shown by their SMILES. Like-named read-outs stand apart in the source and are kept apart here. Where a SMILES comes first, the peptide text is derived from it. [ ]: non-standard residue; d: D form. The star is where a group is joined. Sta = CC(C)C[C@H](N)[C@@H](O)CC(=O)O; Isovaleryl = CC(C)CC(=O)*

`CCCCCCCCCCC[C@@H]1O[C@@H]1CO` (relative stereo) [2-cis-Undecyloxirane methanol]: the “Percent Control Cleavage of Nonapeptide HIV-1 Cleavage Site Fragment” value (“Percent Control Cleavage” below) in the test with HIV-2 protease came to 104%.

On to `CCCCCCCCCCC[C@H]1O[C@@H]1CO` (relative stereo) [2-trans-Undecyloxirane methanol], for which, in the test on HIV-2 protease, the “Percent Control Cleavage” value turned out to be 88%.

Consider `CCCCCCC[C@H]1O[C@H]1C` (relative stereo) [Example 43, cis-2-Epoxydecene], for which the “Percent Control Cleavage” value in the test on HIV-2 protease is on record as 102%.

Turning to `CCCCCCC/C=C\CO` [Example 3, cis-2-Decen-1-ol], the “Percent Control Cleavage” value with HIV-2 protease was determined as 105%.

For `CCCCCCCCC[C@@H]1O[C@@H]1CO` [Example 12, (2R-cis)-3-Nonyloxirane Methanol], the viability at 50 µg/mL was 56.9% in the test with HIV1 IIIb (168 h, read-out: Antiviral Effect (viable cells as % of uninfected controls), run 8, source V (cell free virus), virus kill 27.0%) and 32.1% in the test with HIV1 IIIb (H9, 168 h, read-out: Antiviral Effect (viable cells as % of uninfected controls), run 3, source C (virus producing H9 cells), virus kill 16.0%). Moreover, the viability at 4.9 µg/mL in the test on HIV1 IIIb (168 h, read-out: Antiviral Effect (viable cells as % of uninfected controls), run 9, source V (cell free virus), virus kill 53.0%) came to 82.4%; with HIV1 IIIb (H9, 168 h, read-out: Antiviral Effect (viable cells as % of uninfected controls), run 4, source C (virus producing H9 cells), virus kill 16.0%) it was 31.6%; in the test with HIV1 IIIb (H9, 168 h, read-out: Antiviral Effect (viable cells as % of uninfected controls), run 6, source C (virus producing H9 cells), virus kill 11.0%), 16.7%. Also, the viability at 2.9 µg/mL with HIV1 IIIb (168 h, read-out: Antiviral Effect (viable cells as % of uninfected controls), run 10, source V (cell free virus), virus kill 55.0%) was 82.9%; in the test on HIV1 IIIb (168 h, read-out: Antiviral Effect (viable cells as % of uninfected controls), run 12, source V (cell free virus), virus kill 36.0%), 62.2%; in the test with HIV1 IIIb (H9, 168 h, read-out: Antiviral Effect (viable cells as % of uninfected controls), run 5, source C (virus producing H9 cells), virus kill 15.0%) it was 23.1%. In addition, the viability at 49 µg/mL in the test with HIV1 IIIb (168 h, read-out: Antiviral Effect (viable cells as % of uninfected controls), run 11, 49 ug/ml, source V (cell free virus), virus kill 30.0%) is 54.9%. The viability at 21 µg/mL worked out at 53.4% in the test with HIV1 IIIb (168 h, read-out: Antiviral Effect (viable cells as % of uninfected controls), run 13, source V (cell free virus), virus kill 19.5%) and 98.7% in the test with HIV1 IIIb (168 h, read-out: Antiviral Effect (viable cells as % of uninfected controls), run 14, source V (cell free virus), virus kill 24.0%). Moreover, the viability at 10 µg/mL in the test on HIV1 IIIb (H9, 168 h, read-out: Antiviral Effect (viable cells as % of uninfected controls), run 1, source C (virus producing H9 cells), virus kill 6.0%) was 75.1%; in the test with HIV1 IIIb (H9, 168 h, read-out: Antiviral Effect (viable cells as % of uninfected controls), run 2, source C (virus producing H9 cells), virus kill 27.0%), 71.3%. In addition, the viability at 29 µg/mL with HIV1 IIIb (H9, 168 h, read-out: Antiviral Effect (viable cells as % of uninfected controls), run 7, 29 ug/ml, source C (virus producing H9 cells), virus kill 11.0%) amounted to 15.7%. Besides, the “Percent Control Cleavage” value with HIV-2 protease is reported as 96%.

Regarding `COC(=O)[C@H]1O[C@H]1COCc1ccccc1` [Example 26, Methyl(2S-cis)-3-(benzyloxymethyl)oxirane carboxylate], the viability at 10 µg/mL in the test with HIV1 IIIb (168 h, read-out: Antiviral Effect (viable cells as % of uninfected controls), run 6, source V (cell free virus), virus kill 54.0%) amounted to 58.7%; with HIV1 IIIb (H9, 168 h, read-out: Antiviral Effect (viable cells as % of uninfected controls), run 1, source C (virus producing H9 cells), virus kill 17.0%) it was 20.8%; in the test on HIV1 IIIb (H9, 168 h, read-out: Antiviral Effect (viable cells as % of uninfected controls), run 2, source C (virus producing H9 cells), virus kill 13.2%), 39.4%; in the test with HIV1 IIIb (H9, 168 h, read-out: Antiviral Effect (viable cells as % of uninfected controls), run 4, source C (virus producing H9 cells), virus kill 12.0%), 13.8%. Besides, the viability at 100 µg/mL in the test on HIV1 IIIb (168 h, read-out: Antiviral Effect (viable cells as % of uninfected controls), run 7, source V (cell free virus), virus kill 54.0%) was determined as 81.3%; in the test on HIV1 IIIb (168 h, read-out: Antiviral Effect (viable cells as % of uninfected controls), run 9, source V (cell free virus), virus kill 23.0%), 23.7%; with HIV1 IIIb (H9, 168 h, read-out: Antiviral Effect (viable cells as % of uninfected controls), run 3, source C (virus producing H9 cells), virus kill 13.2%), 54%; with HIV1 IIIb (H9, 168 h, read-out: Antiviral Effect (viable cells as % of uninfected controls), run 5, source C (virus producing H9 cells), virus kill 12.0%), 16.3%. In addition, the viability at 1 µg/mL in the test on HIV1 IIIb (168 h, read-out: Antiviral Effect (viable cells as % of uninfected controls), run 8, 1 ug/ml, source V (cell free virus), virus kill 23.0%) is 19.8%. In addition, in the test on HIV1 IIIb (168 h, read-out: Antiviral Effect (viable cells as % of uninfected controls), run 10, 487 ug/ml, source V (cell free virus), virus kill 30.0%), the viability at 487 µg/mL is 28.1%. Besides, the viability at 0.487 µg/mL with HIV1 IIIb (168 h, read-out: Antiviral Effect (viable cells as % of uninfected controls), run 11*, 0.487 ug/ml, source V (cell free virus), virus kill 25.0%, culture redosed with compound after 3 days) was determined as 26.6%.

On to `CCCCCCCCC[C@@H]1O[C@H]1CO` [Example 29, (2S-trans)-3-Nonyloxirane Methanol], for which the “Percent Control Cleavage” value with HIV-2 protease came out at 106%.

For the compound `CCCCCCCCC[C@H]1O[C@@H]1CO` [Example 30, (2R-trans)-3-Nonyloxirane Methanol], the “Percent Control Cleavage” value with HIV-2 protease is 105%.

Consider `CCCCCCCCCCC[C@@H]1O[C@H]1CO` [Example 31, (2S-trans)-3-Undecyloxirane Methanol], for which the “Percent Control Cleavage” value with HIV-2 protease is on record as 95%.

As to `CCCCCCCCCCC[C@H]1O[C@@H]1CO` [Example 32, (2R-trans)-3-Undecyloxirane Methanol], the “Percent Control Cleavage” value with HIV-2 protease turned out to be 98%.

As for `CCCCCCC[C@@H]1O[C@H]1CO` [Example 33, (2S-trans)-3-heptyloxirane Methanol], the “Percent Control Cleavage” value in the test on HIV-2 protease worked out at 105%.

For `CCCCCCC[C@H]1O[C@@H]1CO` [Example 34, (2R-trans)-3-Heptyloxirane Methanol], the “Percent Control Cleavage” value in the test with HIV-2 protease is given as 104%.

For the compound `CCCCCCC[C@H]1O[C@H]1C(=O)O` [Example 37, (2R-cis)-3-Heptyloxirane Carboxylic Acid], the “Percent Control Cleavage” value with HIV-2 protease came out at 104%.

As to `CCCCCCC[C@@H]1O[C@@H]1C(=O)O` [Example 38, (2S-cis)-3-Heptyloxiranecarboxylic Acid], the “Percent Control Cleavage” value in the test on HIV-2 protease worked out at 105%.

As to `CCCCCCCCC[C@H]1O[C@H]1C(=O)N1CCC[C@H]1C(=O)OC` [Example 41, N-(2R-cis)-3-Nonyloxiraneacyl L-proline Methyl Ester], in the test on HIV-2 protease, the “Percent Control Cleavage” value was 24%.

Regarding `CCCCCCCCC[C@H]1O[C@H]1C(=O)N(CC)CC` [Example 42, N,N-Diethyl-(2R-cis)-3-nonyloxiranecarboxy Amide], in the test with HIV-2 protease, the “Percent Control Cleavage” value worked out at 77%.

Turning to `CCCCCCCCCCCCCC(=O)O` [Myristic Acid, reference compound], the “Percent Control Cleavage” value with HIV-2 protease was determined as 111%.

Consider `CC(C)CC(=O)N[C@H](C(=O)N[C@H](C(=O)N[C@@H](CC(C)C)[C@@H](O)CC(=O)N[C@@H](C)C(=O)N[C@@H](CC(C)C)[C@@H](O)CC(=O)O)C(C)C)C(C)C` [Pepstatin A, reference compound] (Isovaleryl-VV[Sta]A[Sta]-OH), for which, in the test with HIV-2 protease, the “Percent Control Cleavage” value worked out at 1%.

(Values after patent US6153589A, “2,3-epoxy alcohols, acids and derivatives as anti retroviral chemotherapeutic agents” (The United States of America as represented by the …, priority 1992, dated 2000).)
